Consider 43 compounds from paper PMC11087051, “Large-scale deorphanization of Nematostella vectensis neuropeptide G protein-coupled receptors supports the independent expansion of bilaterian and cnidarian peptidergic systems” (eLife, 2024).

This data set in a line: Maximal solubility of the synthetic peptides in water and in DMSO (sheet Peptide_mixes). The conditions noted are these: for max solve (DMSO): in DMSO, number in brackets in the cell; for max solve water: in water, number before the bracket in the cell. Format: physicochemical. An excerpt:
Supplement elife-90674-supp3.xlsx, sheet "Peptide_mixes"

Residues, ends and D or L forms follow the SMILES beside them. No end group written: not given here.

Turning to `C[C@@H](O)[C@H](NC(=O)[C@H](Cc1c[nH]cn1)NC(=O)[C@H](Cc1ccccc1)NC(=O)[C@H](Cc1ccc(O)cc1)NC(=O)[C@@H]1CCCN1C(=O)[C@@H]1CCC(=O)N1)C(=O)N[C@@H](CC(=O)O)C(=O)N[C@@H](CC(N)=O)C(=O)N[C@@H](CO)C(=O)N1CCC[C@H]1C(=O)N[C@@H](CC(N)=O)C(=O)N[C@@H](CCCNC(=N)N)C(=O)N[C@@H](Cc1ccccc1)C(N)=O` [NRFa] (HELM PEPTIDE1{[Glp].P.Y.F.H.T.D.N.S.P.N.R.F.[am]}$$$$V2.0), the “max solve (DMSO)” value is given as 5 (5) mg/ml and the max solve water is given as 5 (5) mg/ml.

Take `CSCC[C@H](NC(=O)[C@H](CC(N)=O)NC(=O)[C@@H]1CCCN1C(=O)[C@H](CCSC)NC(=O)[C@@H]1CCC(=O)N1)C(=O)N[C@H](C(=O)N1CCC[C@H]1C(=O)N[C@@H](Cc1ccccc1)C(=O)N[C@@H](Cc1c[nH]cn1)C(N)=O)C(C)C` [PFHa] (HELM PEPTIDE1{[Glp].M.P.N.M.V.P.F.H.[am]}$$$$V2.0): the “max solve (DMSO)” value stood at 10 mg/mL and the max solve water was found to be 0 mg/mL.

Take `N=C(N)NCCC[C@H](NC(=O)[C@@H]1CCCN1C(=O)CN)C(=O)NCC(N)=O` [PRGa] (H-GPRG-NH2): the “max solve (DMSO)” value is 10 (10) mg/ml and the max solve water is on record as 10 (10) mg/ml.

Take `N=C(N)NCCC[C@H](NC(=O)CNC(=O)[C@@H]1CCC(=O)N1)C(=O)N[C@@H](Cc1ccccc1)C(N)=O` [QGRFa] (HELM PEPTIDE1{[Glp].G.R.F.[am]}$$$$V2.0): the “max solve (DMSO)” value was determined as 10 mg/mL and the max solve water was 5 mg/mL.

For the compound `CC[C@H](C)[C@H](NC(=O)[C@@H]1CCC(=O)N1)C(=O)N[C@H](C(=O)N[C@@H](CCCNC(=N)N)C(=O)N[C@@H](Cc1ccccc1)C(N)=O)[C@@H](C)O` [RFa0] (HELM PEPTIDE1{[Glp].I.T.R.F.[am]}$$$$V2.0), the “max solve (DMSO)” value is reported as 5 (5) mg/ml and the max solve water is reported as 5 (5) mg/ml.

With `N=C(N)NCCC[C@H](NC(=O)CNC(=O)[C@H](CCC(N)=O)NC(=O)[C@H](CC(=O)O)NC(=O)[C@H](CCC(=O)O)NC(=O)[C@H](CCCNC(=N)N)NC(=O)CNC(=O)[C@H](Cc1ccccc1)NC(=O)[C@H](CCCNC(=N)N)NC(=O)CNC(=O)[C@@H]1CCC(=O)N1)C(=O)N[C@@H](Cc1ccccc1)C(N)=O` [RFa1] (HELM PEPTIDE1{[Glp].G.R.F.G.R.E.D.Q.G.R.F.[am]}$$$$V2.0), the “max solve (DMSO)” value was 10 mg/mL and the max solve water was 5 mg/mL.

Take `CC[C@H](C)[C@H](NC(=O)[C@H](CC[S+](C)[O-])NC(=O)[C@@H]1CCCN1C(=O)[C@@H]1CCCN1C(=O)CN)C(=O)N[C@@H](CCCCN)C(=O)N[C@H](C(=O)N1CCC[C@H]1C(=O)N[C@H](C(=O)N[C@@H](CCCNC(=N)N)C(=O)N[C@@H](Cc1c[nH]cn1)C(N)=O)C(C)C)[C@@H](C)CC` (some centres unmarked) [RHa2] (HELM PEPTIDE1{G.P.P.[CS(=O)CC[C@H](N[*:1])C(=O)[*:2]].I.K.I.P.V.R.H.[am]}$$$$V2.0): the “max solve (DMSO)” value stood at 10 mg/mL and the max solve water came to 5 mg/mL.

On to `CC(C)C[C@H](NC(=O)[C@H](Cc1ccc(O)cc1)NC(=O)[C@@H]1CCC(=O)N1)C(=O)N[C@@H](CC(=O)O)C(=O)N1CCC[C@H]1C(=O)N[C@@H](CCCNC(=N)N)C(=O)N1CCC[C@H]1C(N)=O` [RHa5] (HELM PEPTIDE1{[Glp].Y.L.D.P.R.P.[am]}$$$$V2.0), for which the “max solve (DMSO)” value came out at 15 mg/mL and the max solve water stood at 10 mg/mL.

`CC(C)C[C@H](NC(=O)[C@H](Cc1ccccc1)NC(=O)[C@H](C)NC(=O)[C@H](CC(=O)O)NC(=O)[C@@H]1CCC(=O)N1)C(=O)N1CCC[C@H]1C(=O)N[C@@H](CCCCN)C(=O)N1CCC[C@H]1C(=O)N[C@@H](CCCNC(=N)N)C(=O)N1CCC[C@H]1C(N)=O` [RPa1] (HELM PEPTIDE1{[Glp].D.A.F.L.P.K.P.R.P.[am]}$$$$V2.0): the “max solve (DMSO)” value is 10 (10) mg/ml and the max solve water is recorded as 10 (10) mg/ml.

With `CC[C@H](C)[C@H](NC(=O)[C@@H]1CCCN1C(=O)[C@@H](NC(=O)[C@H](CCCNC(=N)N)NC(=O)[C@H](Cc1ccccc1)NC(=O)[C@@H]1CCCN1C(=O)[C@@H]1CCCN1C(=O)[C@@H]1CCC(=O)N1)[C@@H](C)CC)C(N)=O` [pIPIa] (HELM PEPTIDE1{[Glp].P.P.F.R.I.P.I.[am]}$$$$V2.0), the “max solve (DMSO)” value came to 10 mg/mL and the max solve water stood at 0 mg/mL.

Consider APGLW-NH2 [GLWa4], for which the “max solve (DMSO)” value is recorded as 10 (10) mg/ml and the max solve water is 10 (10) mg/ml.

As to APPGNGEGEAGFIPWFS-NH2 [WFSa], the “max solve (DMSO)” value turned out to be 2 mg/mL and the max solve water was 0 mg/mL.

For the compound APRGGRDAPRG-NH2 [PRGa5], the “max solve (DMSO)” value is reported as 10 (10) mg/ml and the max solve water is listed as 10 (10) mg/ml.

In the case of APRGGRSLLDLLAAPRG-NH2 [PRGa1], the “max solve (DMSO)” value was 10 (10) mg/ml and the max solve water is recorded as 10 (10) mg/ml.

Regarding DSSPPQW [QW2], the “max solve (DMSO)” value turned out to be 10 mg/mL and the max solve water amounted to 5 mg/mL.

Regarding EIQPGNMKVWSDPF [PNX14], the “max solve (DMSO)” value amounted to 10 mg/mL and the max solve water is 5 mg/mL.

On to FPPGFHRP-NH2 [HRPa], for which the “max solve (DMSO)” value is 10 mg/mL and the max solve water stood at 5 mg/mL.

In the case of GPPGLW-NH2 [GLWa3], the “max solve (DMSO)” value came out at 10 mg/mL and the max solve water was determined as 5 mg/mL.

Consider GPPMIKIPVRH-NH2 [VRHa], for which the “max solve (DMSO)” value is recorded as 10 (10) mg/ml and the max solve water is 10 (10) mg/ml.

Turning to GPPPIYLPVRP-NH2 [RHa3], the “max solve (DMSO)” value is recorded as 10 (10) mg/ml and the max solve water was 10 (10) mg/ml.

For GPPQGLRW-NH2 [LRWa3], the “max solve (DMSO)” value is given as 5 (5) mg/ml and the max solve water was 5 (5) mg/ml.

As for GPRGGRATEFGPRG-NH2 [PRGa3], the “max solve (DMSO)” value was 10 (10) mg/ml and the max solve water was 10 (10) mg/ml.

On to GPRGGREVNLEGPRG-NH2 [PRGa2], for which the “max solve (DMSO)” value is reported as 5 (5) mg/ml and the max solve water is 5 (5) mg/ml.

Regarding GPRGGRSYDGPRG-NH2 [PRGa4], the “max solve (DMSO)” value amounted to 10 mg/mL and the max solve water was 5 mg/mL.

With GYYRDNIQETRQYLDPRP-NH2 [RHa4], the “max solve (DMSO)” value came to 10 mg/mL and the max solve water came out at 5 mg/mL.

For IPPQGFRFSQW-NH2 [QWa], the “max solve (DMSO)” value came out at 10 mg/mL and the max solve water turned out to be 0 mg/mL.

On to IPPQGLRFNQW-NH2 [QWa2], for which the “max solve (DMSO)” value was determined as 10 mg/mL and the max solve water was 5 mg/mL.

With KGIKQEEIQPGNMKVWSDPF [PNX20], the “max solve (DMSO)” value was 10 mg/mL and the max solve water amounted to 5 mg/mL.

As for LPPRFGGQI-NH2 [QIa], the “max solve (DMSO)” value amounted to 10 mg/mL and the max solve water is 5 mg/mL.

With MPEQDANPQTRFD-NH2 [RFa2], the “max solve (DMSO)” value was determined as 10 mg/mL and the max solve water was 5 mg/mL.

Consider NPPIDLGPAYFHIR-NH2 [HIRa5], for which the “max solve (DMSO)” value was 10 mg/mL and the max solve water was determined as 5 mg/mL.

Consider NPPQPPFRIPI-NH2 [IPIa], for which the “max solve (DMSO)” value worked out at 10 mg/mL and the max solve water is 5 mg/mL.

Take QPGNMKVWSDPF [PNX12]: the “max solve (DMSO)” value was 5 mg/mL and the max solve water came to 0 mg/mL.

Take RSNRVVIHTGANPTMAPLRIPF-NH2 [IPFa]: the “max solve (DMSO)” value was determined as 10 mg/mL and the max solve water was found to be 5 mg/mL.

As for SPKPPGLW-NH2 [GLWa5], the “max solve (DMSO)” value was 10 (10) mg/ml and the max solve water is listed as 10 (10) mg/ml.

With SPPQWKLDSSPPQW [QW3], the “max solve (DMSO)” value turned out to be 10 mg/mL and the max solve water came to 5 mg/mL.

Turning to SPWSCSLRP-NH2 [LRPa1], the “max solve (DMSO)” value is reported as 10 (10) mg/ml and the max solve water is 10 (10) mg/ml.

With SPWSYSLRP-NH2 [LRPa2], the “max solve (DMSO)” value is 10 (10) mg/ml and the max solve water was 10 (10) mg/ml.

Consider TPPQW [QW1], for which the “max solve (DMSO)” value was determined as 10 mg/mL and the max solve water worked out at 2 mg/mL.

As for TPPSNI-NH2 [SNIa], the “max solve (DMSO)” value amounted to 5 mg/mL and the max solve water was 2 mg/mL.

For WPPRP-NH2 [FRPa1], the “max solve (DMSO)” value was 10 (10) mg/ml and the max solve water is recorded as 10 (10) mg/ml.

Consider YPPFLELGQPSYFHIR-NH2 [HIRa2], for which the “max solve (DMSO)” value came out at 10 mg/mL and the max solve water came out at 5 mg/mL.

Consider YPPLNTV-NH2 [NTVa], for which the “max solve (DMSO)” value turned out to be 10 mg/mL and the max solve water turned out to be 5 mg/mL.
